Test systems include XF 498 CNS; RXF 393 renal; LXFL 529 NSCLC; RXF-631 renal; M19-MEL melanoma; SK-MEL-5 melanoma; KM20L2 colon; DMS 114 small cell lung; SNB-78 CNS; HOP-18 NSCLC; MOLT-4 leukemia; DLD-1 colon; DMS 273 small cell lung; MDA-N.
Common to all, as to assay: NCI anticancer screen, dose series, 48 h

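Step 1: Grow cells in 96-well plates. Step 2: Expose to compound for 48 hours at 5 concentrations. Step 3: Interpolate endpoints linearly; if unreached, use highest concentration. Here, GI50 denotes the concentration required for 50% inhibition of growth. TGI is the concentration that stops growth completely.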

On to `CSC(=Nc1ccc([N+](=O)[O-])cc1C#N)NC(=O)c1ccccc1`, for which the TGI in the assay with XF 498 CNS, in the assay on RXF 393 renal, in the assay with LXFL 529 NSCLC, in the assay on RXF-631 renal, in the assay on M19-MEL melanoma and with SK-MEL-5 melanoma was over 100 µM in each case. The TGI with KM20L2 colon, in the assay with DMS 114 small cell lung, in the assay with SNB-78 CNS, in the assay with HOP-18 NSCLC, in the assay with MOLT-4 leukemia and with DLD-1 colon was over 100 µM throughout.

`CCOc1cc2c(cc1OC)c[n+](C)c1c3cc(OC)c(OC)cc3ccc21`: the TGI was 73.5 µM in the assay on RXF 393 renal; over 100 µM in the assay with LXFL 529 NSCLC; 44.9 µM in the assay on RXF-631 renal; over 100 µM with DMS 273 small cell lung; over 100 µM in the assay on M19-MEL melanoma; over 100 µM with SK-MEL-5 melanoma. In addition, the TGI with KM20L2 colon was over 100 µM; in the assay on DMS 114 small cell lung it was 51.3 µM; in the assay with SNB-78 CNS, over 89.9 µM; in the assay on HOP-18 NSCLC, over 80.1 µM; in the assay on MOLT-4 leukemia, over 100 µM; in the assay with DLD-1 colon it was over 100 µM.

For the compound `COc1ccc(/C=C2\C(=O)N(C(=O)c3ccc(NC(C)=O)cc3)N=C2C)cc1OC`, the TGI in the assay with XF 498 CNS, with DMS 273 small cell lung, in the assay with M19-MEL melanoma, in the assay on SK-MEL-5 melanoma, in the assay on DMS 114 small cell lung and in the assay on SNB-78 CNS was over 100 µM in each case. Also, the TGI in the assay on HOP-18 NSCLC, in the assay with MOLT-4 leukemia and with DLD-1 colon was over 100 µM throughout.

With `Cc1cnoc1/N=C1\C=C(Nc2oncc2C)C(=O)c2ccccc21`, the TGI in the assay on XF 498 CNS, in the assay with RXF 393 renal, in the assay with LXFL 529 NSCLC, with RXF-631 renal, with DMS 273 small cell lung and in the assay with SK-MEL-5 melanoma was over 100 µM throughout. Further, the TGI with KM20L2 colon, in the assay on DMS 114 small cell lung, with SNB-78 CNS, in the assay on HOP-18 NSCLC, in the assay with MOLT-4 leukemia and in the assay with DLD-1 colon was over 100 µM each time.

Regarding `O=NN(CC1(O)OCC(O)C(O)C1O)C(Cc1c[nH]c2ccccc12)C(=O)O` (configuration not stated), the TGI in the assay with XF 498 CNS, with RXF 393 renal, with RXF-631 renal, in the assay on DMS 273 small cell lung, with M19-MEL melanoma and in the assay with SK-MEL-5 melanoma was over 100 µM throughout. Besides, the TGI with KM20L2 colon, in the assay with DMS 114 small cell lung, in the assay on SNB-78 CNS, with MOLT-4 leukemia and in the assay with DLD-1 colon was over 100 µM throughout.

Regarding `COC(=O)C1=C(C(=O)OC)C23CC4CCC2(C(=O)C1O3)C4(C)C` (configuration not stated), the TGI in the assay on XF 498 CNS, in the assay on RXF 393 renal, in the assay with LXFL 529 NSCLC, with M19-MEL melanoma, with SK-MEL-5 melanoma and in the assay with KM20L2 colon was over 100 µM each time. Also, the TGI in the assay on HOP-18 NSCLC, with MOLT-4 leukemia and in the assay with DLD-1 colon was over 100 µM in each case.

With `CC(C)NC1CCCCC2c3ccccc3C12O` (configuration not stated), the TGI in the assay with XF 498 CNS, in the assay with RXF 393 renal, with LXFL 529 NSCLC, in the assay on DMS 273 small cell lung, in the assay on M19-MEL melanoma and with SK-MEL-5 melanoma was over 100 µM in each case. The TGI in the assay with KM20L2 colon, in the assay with DMS 114 small cell lung, in the assay with SNB-78 CNS, in the assay on HOP-18 NSCLC and in the assay with MOLT-4 leukemia was over 100 µM throughout.

Turning to `CCO/C(O)=c1/s/c(=C2/SC(=S)N(c3ccc(C)cc3)C2=O)n(-c2ccccc2)c1=N`, the TGI in the assay on LXFL 529 NSCLC, in the assay on M19-MEL melanoma, with SK-MEL-5 melanoma, with HOP-18 NSCLC, in the assay on MOLT-4 leukemia and in the assay on MDA-N was over 100 µM each time.

For the compound `CS(=O)(=O)N(CCC#N)c1ccc(/C=C2\N=C(c3ccccc3Cl)OC2=O)cc1`, the TGI in the assay on XF 498 CNS, in the assay with RXF 393 renal, in the assay on LXFL 529 NSCLC, in the assay on DMS 273 small cell lung, in the assay with M19-MEL melanoma and in the assay on SK-MEL-5 melanoma was over 100 µM each time. Besides, the TGI in the assay with KM20L2 colon, with DMS 114 small cell lung, with SNB-78 CNS, in the assay on MOLT-4 leukemia and with DLD-1 colon was over 100 µM throughout.

On to `Cc1c2ccccc2c(=O)n2c(-c3ccccn3)cccc12`, for which the TGI with XF 498 CNS, in the assay with RXF 393 renal, in the assay on DMS 273 small cell lung, in the assay on M19-MEL melanoma, with SK-MEL-5 melanoma and with KM20L2 colon was over 100 µM each time. Also, the TGI in the assay on DMS 114 small cell lung, in the assay with SNB-78 CNS, in the assay with HOP-18 NSCLC, in the assay on MOLT-4 leukemia and with DLD-1 colon was over 100 µM each time.

With `COc1cc(/C=C2\CC3C4CC=C5C[C@@H](O)CC[C@]5(C)C4CC[C@]3(C)\C2=N\O)cc(OC)c1OC` (some centres not stated), the TGI in the assay with RXF 393 renal was 25.1 µM; in the assay with SK-MEL-5 melanoma, 19.2 µM; in the assay on MOLT-4 leukemia, over 100 µM; with MDA-N, 69.6 µM.

Consider `CN(C)CCNc1c(O)c2c(c(O)c1Cl)C(=O)C=CC2=O`, for which the TGI in the assay with RXF 393 renal was 15.4 µM; in the assay with SK-MEL-5 melanoma, 2.88 µM; in the assay with MOLT-4 leukemia, over 100 µM; in the assay with MDA-N it was 4.64 µM.

On to `O=S(=O)(O)c1cc(O)c(N=NC2S(=O)(=O)OCCOS2(=O)=O)c2ccccc12`, for which the TGI in the assay on RXF 393 renal, in the assay on SK-MEL-5 melanoma, in the assay with MOLT-4 leukemia and with MDA-N was over 100 µM in each case.

On to `CN(C(=O)Cc1cc(Cl)c(Cl)cc1NC(=O)CCCN)[C@H]1CCCC[C@@H]1N1CCCC1`, for which the TGI with RXF 393 renal is 48.7 µM; in the assay with SK-MEL-5 melanoma, 29.9 µM; with MOLT-4 leukemia it was over 100 µM; with MDA-N it was 30.7 µM.

`Fc1ccc(F)c(C=NC23CC4CC(CC(C4)C2)C3)c1`: the TGI in the assay on RXF 393 renal, in the assay with SK-MEL-5 melanoma, in the assay with MOLT-4 leukemia and with MDA-N was over 10 µM throughout.

Consider `[N-]=[N+]=NC1C(Cl)C(=O)NC(=O)N1[C@H]1C[C@H](O)[C@@H](CO)O1` (some centres not stated), for which the TGI with XF 498 CNS, with RXF 393 renal, in the assay with LXFL 529 NSCLC, in the assay with RXF-631 renal, in the assay on DMS 273 small cell lung and in the assay on M19-MEL melanoma was over 100 µM in each case. Moreover, the TGI with SK-MEL-5 melanoma, with KM20L2 colon, in the assay on DMS 114 small cell lung, in the assay on SNB-78 CNS, in the assay with MOLT-4 leukemia and with DLD-1 colon was over 100 µM in each case. Also, the GI50 in the assay on M19-MEL melanoma was 52.1 µM; in the assay with SK-MEL-5 melanoma it was 12.3 µM.

In the case of `CN(C)N1C(=C(C#N)C#N)C(c2ccccc2)CC1C#N` (configuration not stated), the TGI with RXF 393 renal, in the assay with SK-MEL-5 melanoma, in the assay with MOLT-4 leukemia and in the assay on MDA-N was over 100 µM throughout.

Consider `OC1C2CN3CCN(C2)CC1(c1ccccc1)C3` (configuration not stated), for which the TGI in the assay on RXF 393 renal, with SK-MEL-5 melanoma, in the assay with MOLT-4 leukemia and with MDA-N was over 100 µM in each case.

As for `Cn1c2ccccc2n2c(=O)c(-c3ccc(Cl)cc3)nnc12`, the TGI with RXF 393 renal, in the assay with SK-MEL-5 melanoma, in the assay with MOLT-4 leukemia and in the assay with MDA-N was over 100 µM in each case.

For `COc1nc2ncc([C@@H](OC(C)=O)[C@@H](COC(C)=O)OC(C)=O)nc2c(=O)n1C`, the TGI in the assay on RXF 393 renal, with SK-MEL-5 melanoma, in the assay with MOLT-4 leukemia and in the assay on MDA-N was over 100 µM each time.

For the compound `Nc1nc(N)c2cc(-c3cc4ccccc4[nH]3)ccc2n1`, the TGI with RXF 393 renal amounted to 48.4 µM; in the assay with SK-MEL-5 melanoma, 30.2 µM; in the assay on MOLT-4 leukemia, 53.1 µM; in the assay with MDA-N, 40.7 µM.

In the case of `CCN(CC)C1=Nc2ccccc2-n2ccnc2C1`, the TGI with RXF 393 renal, in the assay with SK-MEL-5 melanoma, with MOLT-4 leukemia and in the assay with MDA-N was over 100 µM in each case.

`O=c1[nH]c2c(C(F)(F)F)c(Cl)c(-c3ccccc3)nc2o1`: the TGI in the assay on RXF 393 renal is 75.3 µM; in the assay with SK-MEL-5 melanoma, over 100 µM; in the assay with MOLT-4 leukemia, 32.5 µM; in the assay on MDA-N, 44.8 µM.

For the compound `C[N+](C)(N)Cc1nc(-c2ccc(Cl)cc2)no1`, the TGI in the assay with RXF 393 renal, in the assay on SK-MEL-5 melanoma, in the assay with MOLT-4 leukemia and in the assay with MDA-N was over 100 µM throughout.

Regarding `O=C1C(NS(=O)(=O)c2ccccc2)=C(n2ccnc2)C(=O)c2ccccc21`, the TGI in the assay with RXF 393 renal, in the assay with SK-MEL-5 melanoma, with MOLT-4 leukemia and with MDA-N was over 100 µM each time.

Regarding `COc1cc2ncnc(Nc3cccc(Br)c3)c2cc1OC`, the TGI in the assay on RXF 393 renal was 53 µM; in the assay with SK-MEL-5 melanoma, 5.67 µM; with MOLT-4 leukemia, over 65.5 µM; in the assay with MDA-N it was over 42.9 µM.

As for `Cc1cc2c3c(c1)S(=O)(=O)c1cc(Cl)ccc1N3CCC2`, the TGI in the assay on RXF 393 renal, in the assay on SK-MEL-5 melanoma, in the assay with MOLT-4 leukemia and in the assay with MDA-N was over 100 µM each time.
